# According to patent publication US20250051391A1, “PEPTIDE INHIBITORS AND METHODS FOR INHIBITING PROTEIN AGGREGATION IN NEURONS AND NEURODEGENERATIVE DISEASES” (THE GOVERNING COUNCIL OF THE UNIVERSITY OF TORONTO, priority 2021, published 2025):
# Ends that are not written are not given here.
# How the values were obtained:
# [1] = test system: A53T a-syn iPSC-derived dopaminergic neurons; experiment: Human iPSC-derived dopaminergic neurons with A53T a-syn mutation; type: cell-based; settings: A53T a-syn iPSC-derived dopaminergic neurons vs isogenic controls
# Procedure: iCell Dopa neurons (A53T a-syn mutant and isogenic control) were purchased from Fujifilm Cellular Dynamics (Madison, WI, USA) and cultured as per manufacturer's instructions. Briefly, cells were plated in complete maintenance medium provided by the manufacturer on poly-L-ornithine/laminin coated plates (ibidi). Cells recovered from thawing for 24 h and then were transduced with AAV-Scramble1.3-RFP or AAV-Pdpep1.3-RFP for 48 h at which time media was completely changed. Cells were fixed using 4% PFA at 7 days post-plating.
# After fixation, cells were permeabilized with 0.2% Triton X-100 for 15 min, washed 3 times with PBS and then incubated with blocking solution (1% BSA, 22.52 mg/mL glycine, 0.1% Tween-20 in PBS) for 1 h. […] Following another 3 PBS washes, nuclei were counterstained with DAPI (ThermoFisher) and then coverslips were mounted on slides using fluorescence mounting medium (DAKO) and sealed using clear nail varnish.
# Confocal images of primary cortical neurons, dopaminergic neurons, and LAMP1 staining within the SN were processed using Imaris software (Oxford instruments). Z stacks were projected to give a 3D reconstruction of the field of view and mean pixel intensity per GFP^+ cell (or RFP^+ cell for V1S/SV2 experiments) was calculated for a-syn or LAMP1 signal using the software's surfaces module. […]
# HEK293 cells = experiment: Lysosome activity (lysosomal flux) assay in HEK293 cells; type: cell-based, human; settings: HEK293 cells co-expressing A53T a-syn
# Procedure: The Lysosome Intracellular Activity Assay kit was purchased from Abcam and used per manufacturer's instructions (ab234622). Briefly, cell medium was replaced with fresh medium containing DMSO, Leupeptin, or Bafilomycin A1 and incubated for 1 h at 37° C. with 5% CO2. Self-quenched substrate was added into each condition and incubated for 1 h (HEK293 cells) or overnight (SNCA triplication fibroblasts) at 37° C. with 5% CO2. After incubation, cells were washed twice in ice-cold 1× assay buffer containing DMSO, Leupeptin, or Bafilomycin A1. For HEK293 cells, cells were re-suspended in PBS containing DMSO or Leupeptin and analyzed by FACS. For fibroblasts, cells were incubated in PBS containing DMSO or Bafilomycin A1 and imaged by confocal microscopy.
# [2] = test system: a-syn oligomers in HEK293 cells; experiment: Oligomers screen (split YFP-a-syn protein fragment complementation, FACS); type: cell-based, human
# Source text: To detect a-syn oligomers, a protein fragment complementation assay (PCA) of a-syn oligomerization in HEK293 cells (14) was used. In this assay, human A53T a-syn was fused to either the C- or N-terminal half of yellow fluorescent protein (YFP). No fluorescence is detectable while a-syn exists in monomers but, when a-syn oligomerizes, the two halves of YFP come in close enough proximity to form a functional, spontaneously fluorescent protein. […] By using fluorescence activated cell sorting (FACS), cells expressing Flag-tagged peptides that directly or indirectly interfered with a-syn oligomer formation were isolated and then the peptides were identified from genomic DNA (FIG. 1A). The screens yielded 10 hits (Table 1). The hit with the most reads (i.e., the most abundant) was the same peptide in all screens: IPIQLKA (SEQ ID NO: 1) (PDpep1) (Table 2). […] Lead peptide targets CHMP2B, a member of ESCRT-III
# PCR primers that included the Illumina adaptor sequences were used to amplify peptide coding sequences recovered from selection and cell sorting. Results were demultiplexed, and peptide counts were tallied. After demultiplexing, only reads with an average quality Phred score of >30 were selected, and frequencies were calculated. Finally, the reads were then normalized to the total number of peptides read for that sample population, and a scalar factor was applied. In parallel, ˜25 individual colonies were Sanger sequenced to compare to the NGS data.
# Lentiviruses were made in a 15 cm dish format by transfecting packaging cells (293T) with a three-plasmid system as previously described. Viral transduction of HEK293T cells, tet-off split luciferase a-syn cells, tet-off parent cells, and SH-SY5Y cells were performed with a multiplicity of infection of 0.3 (MOI=0.3). Infected cells were selected in puromycin-containing medium to eliminate uninfected cells and three aliquots of cells were collected for sampling of the initial (TO) cell population. Cells were treated with MG132 at concentrations of 0 μM, 10 μM, 25 μM or 50 μM. For the cell viability screen, surviving cells were collected and gDNA was extracted for identification of peptide inhibitors of cell toxicity. For the inhibition of a-syn aggregation screen, split YFP-a-syn constructs were transfected following stable expression of the peptides. Cells were sorted based on their GFP fluorescence intensities with a FACSVantage SE cell sorter (BD Bioscience).
# Cells were harvested by trypsin treatment and centrifuged at 500×g for 5 minutes. The pellet was resuspended in ice-cold PBS and centrifuged again. The pellet was then resuspended at a concentration of 4×10^6 cells/ml in the sorting buffer, which is PBS containing 100 Kunitz Dnase l/ml, 10 μg/ml propidium iodide (Sigma) and 2% FBS. The sorting solution was also supplemented with either 10 μM forskolin, 100 μM 5,6-Dichlorobenzimidazole riboside (DRB, Sigma), 10 μM forskolin (Sigma) and 100 μM DRB or DMSO, as a control. The cells were then sent through a 40 μm filter to remove large clumps and loaded into either a FACScan Flow Cytometer (BD Bioscience) for cell analysis or a FACSVantage SE cell sorter (BD Bioscience) for cell sorting. The cells with positive propidium iodide staining (i.e., dead cells) were first eliminated from the analysis or sorting pool. For cell sorting, the desired population, either the most or least bright EGFP-positive cells, according to the purpose of the experiments (see Results), was sorted into either 15 ml conical tubes or 96-well plates, which both contained complete DMEM culture media.
# Genomic DNA (gDNA) from peptide expressing cells at different time-points was extracted using QIAamp DNA Blood Mini Kit. PCR amplifications of peptides from gDNA in parallel with the lentiviral plasmid library (naïve library) were performed using indexed Illumina PCR primers to incorporate both the Illumina adapter sequences and indexing sequences. […]
Substance,LAMP1 levels [1],a-syn levels [1],lysosomal flux (HEK293 cells),Reads Ratio [2],Reads GFP High ([2]; FACS fraction GFP High),Reads GFP Inter ([2]; FACS fraction GFP Inter),Reads GFP Neg ([2]; FACS fraction GFP Neg)
DEEIERQLKALG [PDpep1.3],returned both a-syn and LAMP1 levels to those of controls,returned both a-syn and LAMP1 levels to those of controls,returned lysosomal flux to baseline,–,–,–,–
"IPIQLKA [PDpep1, top hit of all screens; maps to CHMP2B residues 203-209]",–,–,–,"1,218.98",12,2853,15556
